Reference: a compilation of properties of binary mixtures (doi:10.1007/s10953-009-9410-7)

Assay: xn = mol fraction of the nth substance listed
Details: 101 kPa

CCCC[n+]1ccn(C)c1.N#C[S-] + CCCCCCO
viscosity [mPa·s]
Details	298.15 K	308.15 K	318.15 K	328.15 K	338.15 K	348.15 K
x2 = 0	51.7	34.9	24.2	16.7	12.7	9.98
x2 = 0.0424	44.4	29.7	21	15.6	–	–
x2 = 0.1505	–	–	17.7	13.3	10.3	8.26
x2 = 0.3093	26.1	18.3	13.5	10.3	–	6.54
x2 = 0.453	18.2	–	9.87	7.65	–	4.92
x2 = 0.5773	13.8	10.2	7.71	6	–	3.88
x2 = 0.6307	12.1	9.01	–	5.39	4.3	3.51
x2 = 0.6962	10.3	7.67	5.87	–	3.67	3.04
x2 = 0.7583	8.77	6.54	4.98	–	3.18	2.65
x2 = 0.8512	6.83	5.15	3.99	–	2.57	2.1
x2 = 0.9102	5.87	–	–	2.69	2.17	1.77

CCCC[n+]1ccn(C)c1.N#C[S-] + CCCCCO
viscosity [mPa·s]
Details	298.15 K	308.15 K	318.15 K	328.15 K	338.15 K	348.15 K
x2 = 0	51.7	34.9	24.2	16.7	–	9.98
x2 = 0.0193	46.9	–	21.9	16.2	12.5	9.88
x2 = 0.1443	34.2	–	17	12.8	9.98	7.97
x2 = 0.2751	26	18.3	13.5	10.4	8.2	–
x2 = 0.3843	20	14.4	10.9	8.49	–	–
x2 = 0.487	15.5	11.4	8.74	6.84	5.48	4.47
x2 = 0.5557	12.7	9.5	–	5.74	4.61	3.78
x2 = 0.616	10.8	8.15	6.63	5.05	–	3.42
x2 = 0.7302	7.74	5.89	4.62	–	3.04	2.54
x2 = 0.7914	6.49	4.97	3.92	3.16	2.6	–
x2 = 0.856	5.38	4.14	3.27	2.63	2.16	1.8
x2 = 0.9135	4.56	–	2.77	2.22	1.81	–

CCCC[n+]1ccn(C)c1.N#C[S-] + CCCCO
viscosity [mPa·s]
Details	298.15 K	308.15 K	318.15 K	328.15 K	338.15 K	348.15 K
x2 = 0	51.7	34.9	24.2	16.7	12.7	9.98
x2 = 0.0911	39.2	26.5	–	14.2	11	8.82
x2 = 0.3317	21.2	15.2	11.5	8.92	7.12	–
x2 = 0.4552	15.3	11.3	8.7	–	5.51	4.51
x2 = 0.5596	–	8.44	–	5.16	–	3.5
x2 = 0.6222	–	7.04	–	4.39	–	3.02
x2 = 0.6834	7.53	–	–	–	3.08	2.59
x2 = 0.79	–	4.12	3.3	2.69	2.24	1.89
x2 = 0.8487	4.37	3.43	2.75	2.25	1.87	1.58
x2 = 0.8975	3.74	2.94	2.36	1.92	1.6	–
x2 = 0.9738	–	2.27	–	1.46	1.2	–

CCCCCCO + CCCC[n+]1ccn(C)c1.N#C[S-]
x1 = 1
Details	viscosity [mPa·s]
298.15 K	4.48
318.15 K	2.55
328.15 K	1.98
348.15 K	1.28

CCCCCO + CCCC[n+]1ccn(C)c1.N#C[S-]
x1 = 1
Details	viscosity [mPa·s]
308.15 K	2.57
318.15 K	2
328.15 K	1.58
338.15 K	1.27
348.15 K	1.03

CCCCO + CCCC[n+]1ccn(C)c1.N#C[S-]
x1 = 1
Details	viscosity [mPa·s]
298.15 K	2.52
308.15 K	1.97
318.15 K	1.56
338.15 K	1.02
